Data: US9504730B2, “Method of achieving a thymosin beta 4 concentration in a human patient” (REGENERX BIOPHARMACEUTICALS, INC., priority 2010, dated 2016)

What was measured:
[1] = Analysis of TB4 concentration data from human patients administered different dosages of thymosin beta 4; format: in vivo; design: key to whether first dose brings TB4 concentration that high: ~: indicates first dose does not bring TB4 concentration that high; *: indicates the most efficient treatment (as determined by total required)
Description: The above formulas were developed by analysis of data from human patients who had been administered different dosages of thymosin beta 4. The frequency of dosing needed between dosages to achieve the desired concentration over time, multiplied by the dosage, gave the total drug administered in a 24-hour period. The dosage that maintained the required concentration with the lowest total drug administered was termed the most efficient. See Exampe I, below.
Based on the data collected, concentrations of TB4 in the body portion follow (especially soon after administration, with a decreasing correlation over time) a power function. An estimation of the concentration of thymosin beta 4 at 1 hour was determined using this model with an average within 10% of the experimental mean for the concentrations tested. The concentrations in the tested patients at 1 hour give an approximate range that can be efficiently maintained because the concentrations at about 1 hour are approximately 15% of the initial concentration (mean 14.7%, median 13.3%). The concentration found in human patients at 5 minutes after initial administration intravenously was defined as the initial concentration, and as Cmax, i.e. the maximum concentration achieved after administration of a dose. For the calculations made in the studies, the range of concentration which is the effective and desired dose was assumed to be 5-25% of this initial concentration (Cmax). In general, intervals between intravenous treatment times of about an hour also are the most reliably efficient in achieving and maintaining a particular concentration. Therefore, in certain embodiments, when calculating dosage using Formula I or Formula II, t may equal about 1. The concentration which is achieved with a particular dosage of thymosin beta 4 at 5 minutes (Cmax) can be found using Formula I by calculating C using the particular dosage (D) and 0.083 hours (5 minutes) as t.
Using Formula II, concentration at 1 hour is (35.6)D. In certain embodiments, the formula gives the concentration with an average error of about 10%, calculated against the experimental mean from in vivo patient data. Formulas I and II where t=1, therefore, provide a reasonable estimation of a concentration that is an acceptable and effective concentration to provide therapeutic treatment.
Treatment regimens to maintain a given dose (data summary): […]

[2] = Thymosin dosage regimens calculated with Formula II; design: species or system human
Description: A physician or health care provider may first determine a desired concentration of thymosin beta 4 (or a desired increase in concentration of thymosin beta 4 from an existing level) in a body portion of a live human patient in need of treatment. The physician or health care provider may then calculate the dosage necessary to achieve the desired concentration using the formula: C=(A)D·t^−B (Formula I), or D=C/(A)(t^−B) (Formula IA), wherein C is the predetermined thymosin beta 4 concentration to be provided in ng/mL, D is the dosage of thymosin beta 4 administered in mg, t is the time elapsed after administration of an initial dosage of thymosin beta 4 in hours (t is treated as a constant in this equation), A is about 30 to about 38, and B is about 0.5 to about 1. According to one embodiment, the formula is C=(35.6)D·t^−0.754 (Formula II). Time, t, may be 1, and D may equal C/35.6.
A patient in need of thymosin beta 4 treatment with a concentration of 10,000 ng/mL exogenous thymosin beta 4 is administered thymosin beta 4 according to a dosage schedule wherein D and t are calculated using C=(35.6)D*t[…].
A patient in need of thymosin beta 4 treatment with a concentration of 10,000 ng/mL exogenous thymosin beta 4 with a 1-hour dosing frequency is administered D=C/(A)t^−B=10,000 ng/mL/(35.6)(1^−0.75 h)=281 mg thymosin beta 4. […]

[3] = Concentration > 1000 ng/mL in blood, infusion dosage 42 mg per dose
[4] = Concentration > 1000 ng/mL in blood, infusion dosage 140 mg per dose
[5] = Concentration > 1000 ng/mL in blood, infusion dosage 420 mg per dose
[6] = Concentration > 1000 ng/mL in blood, infusion dosage 1260 mg per dose
[7] = Concentration > 5000 ng/mL in blood, infusion dosage 42 mg per dose
[8] = Concentration > 5000 ng/mL in blood, infusion dosage 140 mg per dose
[9] = Concentration > 5000 ng/mL in blood, infusion dosage 420 mg per dose
[10] = Concentration > 5000 ng/mL in blood, infusion dosage 1260 mg per dose
[11] = Concentration > 10000 ng/mL in blood, infusion dosage 42 mg per dose
[12] = Concentration > 10000 ng/mL in blood, infusion dosage 140 mg per dose
[13] = Concentration > 10000 ng/mL in blood, infusion dosage 420 mg per dose
[14] = Concentration > 10000 ng/mL in blood, infusion dosage 1260 mg per dose
[15] = Concentration > 20000 ng/mL in blood, infusion dosage 140 mg per dose
[16] = Concentration > 20000 ng/mL in blood, infusion dosage 420 mg per dose
[17] = Concentration > 20000 ng/mL in blood, infusion dosage 1260 mg per dose
[18] = Concentration > 40000 ng/mL in blood, infusion dosage 420 mg per dose
[19] = Concentration > 40000 ng/mL in blood, infusion dosage 1260 mg per dose
[20] = human patients, intravenous, initial concentration = 5 minutes after administration (Cmax)

CC[C@H](C)[C@H](NC(=O)[C@H](CCC(=O)O)NC(=O)[C@H](C)NC(=O)[C@H](CCSC)NC(=O)[C@H](CC(=O)O)NC(=O)[C@@H]1CCCN1C(=O)[C@H](CCCCN)NC(=O)[C@H](CC(=O)O)NC(=O)[C@H](CO)NC(C)=O)C(=O)N[C@@H](CCC(=O)O)C(=O)N[C@@H](CCCCN)C(=O)N[C@@H](Cc1ccccc1)C(=O)N[C@@H](CC(=O)O)C(=O)N[C@@H](CCCCN)C(=O)N[C@@H](CO)C(=O)N[C@@H](CCCCN)C(=O)N[C@@H](CC(C)C)C(=O)N[C@@H](CCCCN)C(=O)N[C@@H](CCCCN)C(=O)N[C@H](C(=O)N[C@@H](CCC(=O)O)C(=O)N[C@H](C(=O)N[C@@H](CCC(N)=O)C(=O)N[C@@H](CCC(=O)O)C(=O)N[C@@H](CCCCN)C(=O)N[C@@H](CC(N)=O)C(=O)N1CCC[C@H]1C(=O)N[C@@H](CC(C)C)C(=O)N1CCC[C@H]1C(=O)N[C@@H](CO)C(=O)N[C@@H](CCCCN)C(=O)N[C@@H](CCC(=O)O)C(=O)N[C@H](C(=O)N[C@H](C(=O)N[C@@H](CCC(=O)O)C(=O)N[C@@H](CCC(N)=O)C(=O)N[C@@H](CCC(=O)O)C(=O)N[C@@H](CCCCN)C(=O)N[C@@H](CCC(N)=O)C(=O)N[C@@H](C)C(=O)NCC(=O)N[C@@H](CCC(=O)O)C(=O)N[C@@H](CO)C(=O)O)[C@@H](C)CC)[C@@H](C)O)[C@@H](C)O)[C@@H](C)O [thymosin beta 4, Thymosin beta 4]
A of Formula II C=(A)D·t^−B (concentration at 1 hour is (35.6)D) ([1]; C in ng/mL, D in mg, t in hours, developed by analysis of human patient data): 35.6
Frequency of administration [1, 3]: 2 h
Total TB4 required for 24 hour treatment [1, 3]: 504 mg
Frequency of administration [1, 4]: 3 h
Total TB4 required for 24 hour treatment [1, 4]: 1120 mg
Frequency of administration [1, 5]: 6 h
Total TB4 required for 24 hour treatment [1, 5]: 1680 mg
Frequency of administration [1, 6]: 9 h
Total TB4 required for 24 hour treatment [1, 6]: 3360 mg
Frequency of administration [1, 7]: 0.167 h
Total TB4 required for 24 hour treatment [1, 7]: 6048 mg
Frequency of administration [1, 8]: 1 h
Total TB4 required for 24 hour treatment [1, 8]: 5040 mg
Frequency of administration [1, 9]: 2 h
Total TB4 required for 24 hour treatment [1, 9]: 5040 mg
Frequency of administration [1, 10]: 4 h
Total TB4 required for 24 hour treatment [1, 10]: 7560 mg
Frequency of administration [1, 11]: 0.083 h
Total TB4 required for 24 hour treatment [1, 11]: 12096 mg
Frequency of administration [1, 12]: 0.333 h
Total TB4 required for 24 hour treatment [1, 12]: 10080 mg
Frequency of administration [1, 13]: 1 h
Total TB4 required for 24 hour treatment [1, 13]: 10080 mg
Frequency of administration [1, 14]: 3 h
Total TB4 required for 24 hour treatment [1, 14]: 10080 mg
whether first dose brings TB4 concentration that high ([1]; Concentration > 20000 ng/mL in blood, infusion dosage 42 mg per dose): ~42
Frequency of administration [1, 15]: 0.167 h
Total TB4 required for 24 hour treatment [1, 15]: 20160 mg
Frequency of administration [1, 16]: 0.667 h
Total TB4 required for 24 hour treatment [1, 16]: 15120 mg
Frequency of administration [1, 17]: 2 h
Total TB4 required for 24 hour treatment [1, 17]: 15120 mg
whether first dose brings TB4 concentration that high ([1]; Concentration > 40000 ng/mL in blood, infusion dosage 42 mg per dose): ~42
whether first dose brings TB4 concentration that high ([1]; Concentration > 40000 ng/mL in blood, infusion dosage 140 mg per dose): ~140
Frequency of administration [1, 18]: 0.167 h
Total TB4 required for 24 hour treatment [1, 18]: 60480 mg
Frequency of administration [1, 19]: 1 h
Total TB4 required for 24 hour treatment [1, 19]: 30240 mg
average concentration at 1 hour after administration, % of Cmax (SD) ([1]; human patients, experimental data, Cmax = 5-minute concentration): 15.7%±1.32%
concentration at about 1 hour as % of the initial concentration, mean [1, 20]: 14.7%
concentration at about 1 hour as % of the initial concentration, median [1, 20]: 13.3%
concentration at about 1 hour as % of the initial concentration ([1]; human patients, intravenous, initial concentration = 5 minutes after administration (Cmax), approximate): approximately 15%
Cmax ([1]; human, in vivo, intravenous, 6 mg/kg to 18 mg/kg dosing (420 mg and 1260 mg unit dose, respectively), read-out: Cmax levels): 90 to 350 µg/mL
time t between dosage forms calculated for the desired concentration ([2]; 10,000 ng/mL exogenous thymosin beta 4, 200 mg unit dosage forms): 0.637 h
dosage D calculated for the desired concentration ([2]; 10,000 ng/mL exogenous thymosin beta 4, 1-hour dosing frequency): 281 mg
